Data taken from ChEMBL document CHEMBL5537156, “Discovery and Optimization of WDR5 Inhibitors via Cascade Deoxyribonucleic Acid-Encoded Library Selection Approach” (J Med Chem, 2024).

What was measured:
[1] = biological target: Histone-lysine N-methyltransferase 2A/WDR5 (Homo sapiens, UniProt P61964); assay: Inhibition of MLL1/WDR5 (unknown origin) protein-protein interaction incubated for 60 mins by HTRF analysis; assay type: protein assay
[2] = system: MV4-11; assay: Antiproliferative activity against human MV4-11 cells harboring MLL-r assessed as cell growth inhibition incubated for 5 days by CCK-8 assay; assay type: functional, cell-based
[3] = system: K562; assay: Antiproliferative activity against human K562 cells assessed as cell growth inhibition incubated for 5 days by CCK-8 assay; assay type: functional, cell-based

Compound	IC50 [1] [µM]	IC50 ([2]; Homo sapiens, MV4-11, 120 h) [µM]	IC50 ([3]; Homo sapiens, K562, 120 h) [µM]	IC50 ([2]; mv4-11) [µM]	IC50 ([3]; k562) [µM]
CNC(=O)[C@@H](Cc1ccc(Cl)cc1)NC(=O)c1cc(NCc2nc[nH]c2C)cc(-c2cc(CO)ccc2C)c1	0.0086	5	12.2	–	–
Cc1[nH]cnc1CNc1cc(Br)cc(C(=O)NCCc2ccc(Cl)cc2)c1	0.221	–	–	–	–
Cc1ccc(CO)cc1-c1cc(NCc2nc[nH]c2C)cc2c1CCN(CCc1ccc(Cl)cc1)C2=O	0.0172	6.2	3.4	–	–
Cc1[nH]cnc1CNc1cc(Br)cc(C(=O)N[C@H](Cc2ccc(Cl)cc2)C(=O)NC2CC2)c1	0.0324	–	–	–	–
CNC(=O)[C@@H](Cc1ccc(Cl)cc1)NC(=O)c1cc(NCc2nc[nH]c2C)cc(-c2ccc(Cl)cc2C(F)(F)F)c1	0.0098	6.2	3.43	4.13	4.9
COC(=O)[C@@H](Cc1ccc(Cl)cc1)NC(=O)c1cc(NCc2nc[nH]c2C)cc(-c2ccccc2SC)c1	–	3.9	3	–	–
Cc1[nH]cnc1CNc1cc(C(=O)N[C@H](Cc2ccc(Cl)cc2)C(=O)O)ccc1F	0.0846	–	–	–	–
CSc1ccccc1-c1cc(NCc2nc[nH]c2C)cc2c1CCCN(CCc1ccc(Cl)cc1)C2=O	0.319	3.93	3.03	–	–
CSc1cc(F)ccc1-c1cc(NCc2nc[nH]c2C)cc2c1CCN(CCc1ccc(Cl)cc1)C2=O	0.0395	3.5	4	–	–
CNC(=O)[C@@H](Cc1ccc(Cl)cc1)NC(=O)c1cc(NCc2nc[nH]c2C)cc(-c2ccc(C(C)(F)F)cc2)c1	0.149	–	–	–	–
Cc1[nH]cnc1CNc1cc(Br)cc(C(=O)N[C@H](Cc2ccc(Cl)cc2)C(=O)O)c1	0.05	–	–	–	–
CSc1ccccc1-c1cc(NCc2nc[nH]c2C)cc2c1CCN(CCc1ccc(Cl)cc1)C2=O	0.0416	4.8	4.7	–	–

Next, values leading:

IC50 [1] [µM]	IC50 ([2]; Homo sapiens, MV4-11, 120 h) [µM]	IC50 ([3]; Homo sapiens, K562, 120 h) [µM]	IC50 ([2]; mv4-11) [µM]	IC50 ([3]; k562) [µM]	Compound
0.0068	0.17	3.6	–	–	COc1cc(CN2CCc3c(cc(Cn4ccn(C)c4=N)cc3-c3ccc(F)cc3C)C2=O)cc(OC)c1
0.0155	5.7	7.1	–	–	Cc1ccc(CO)cc1-c1cc(NCc2nc[nH]c2C)cc2c1CCN(Cc1ccc(Cl)cc1)C2=O
0.0269	2.3	3.5	–	–	CSc1cc(F)ccc1-c1cc(NCc2nc[nH]c2C)cc2c1CCN(Cc1ccc(Cl)cc1)C2=O
0.239	–	–	–	–	Cc1[nH]cnc1CNc1cc(C(=O)N[C@H](Cc2ccc([N+](=O)[O-])cc2)C(=O)O)ccc1F
–	5.5	4.9	–	–	COC(=O)[C@@H](Cc1ccc(Cl)cc1)NC(=O)c1cc(NCc2nc[nH]c2C)cc(-c2cc(CO)ccc2C)c1
0.0252	–	–	–	–	CNC(=O)[C@@H](Cc1ccc(Cl)cc1)NC(=O)c1cc(Br)cc(NCc2nc[nH]c2C)c1
0.0188	–	–	–	–	CNC(=O)[C@@H](Cc1ccc(Cl)cc1)NC(=O)c1cc(NCc2nc[nH]c2C)cc(-c2ccccc2C2CC2)c1
0.0113	1.9	1.1	–	–	CNC(=O)[C@@H](Cc1ccc(Cl)cc1)NC(=O)c1cc(NCc2nc[nH]c2C)cc(-c2ccccc2SC)c1
0.0758	4.8	5.2	–	–	Cc1[nH]cnc1CNc1cc2c(c(-c3ccc(Cl)cc3C(F)(F)F)c1)CCN(CCc1ccc(Cl)cc1)C2=O
0.0405	3.4	4.9	–	–	CSc1ccccc1-c1cc(NCc2nc[nH]c2C)cc2c1CCN(Cc1ccc(Cl)cc1)C2=O
